# According to the METLIN SMRT retention time set (Domingo-Almenara et al. 2019):
# Test: gradient 5% acetonitrile 3 min, to 50% in 2 min, to 85% in 15 min, held 3 min, 100 µL/min
# Settings: column: Zorbax Extend-C18 2.1 x 50 mm; eluents: water / acetonitrile, 0.1% formic acid
# Procedure, shortened: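 The system's dead and dwell volumes were 40 μL and 900 μL, with a Zorbax Extend-C18 column (2.1 × 50 mm, 1.8 μm) run at 100 μL/min in water and acetonitrile containing 0.1% formic acid each. Pure standards were analyzed in mixtures of ~100 molecules by HPLC–quadrupole time-of-flight mass spectrometry in positive and negative ionization mode. Retention time was assigned from computationally picked, manually inspected adduct peaks.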
row,SMILES,RP-LC retention time [s]
1,COc1ccc(NC(=O)CSc2nc3nc(C)cc(C)n3n2)cc1OC,652
2,O=C(NC1CCN(c2cc(-c3ccc(F)cc3)[nH]n2)C1)c1ccc(F)cc1F (stereo not drawn),736
3,Cc1csc(-c2cc(S(=O)(=O)N3CCCC3)cn2CC(=O)N2CCCC2)n1,803
4,CCOc1ccccc1C(=O)Nc1c(-c2ccc(OC)cc2)nc2cc(C)ccn12,732
5,Cc1cc(OCC(=O)N[C@H](C(=O)O)C(C)C)c2c3c(c(=O)oc2c1)CCC3,788
6,O=C(NCc1ccc(F)cc1)N1CCC(c2noc(C3CC3)n2)C1 (stereo not drawn),751
7,CC(C)C(NC(=O)C1CCCN(S(=O)(=O)Cc2ccccc2)C1)C(C)C (stereo not drawn),962
8,Cc1sc(C)c(S(=O)(=O)Nc2ccc(Cl)cc2)c1-c1cc(C(F)(F)F)on1,1210
9,CC(C)(C)CNC(=O)c1cc(=O)[nH]c2ccccc12,869
10,Cc1cc(N2CCOCC2)nc(N2CCN(C(=O)Cc3ccc(F)cc3)CC2)n1,566
11,O=C(CN1C(=O)NC2(CCCCC2)C1=O)Nc1ccc(Cl)cc1,825
12,O=C(Nc1ccc2c(c1)OCCO2)C1CCN(C(=O)c2cc(-c3cccnc3)n[nH]2)CC1,655
13,CNc1nc(Nc2cc(F)ccc2F)nc2ccccc12,675
14,CC(C)COc1cc(=O)n2c(c1C(=O)NC1CCCCC1)CCCCC2,842
15,Cc1ccc(-c2cn3c(CC(=O)NCCc4ccc(Cl)cc4)csc3n2)cc1C,734
16,O=C1c2cccc3cccc(c23)C(=O)N1CCCC(=O)N1CCc2ccccc21,908
17,COc1cc(-c2noc(Cn3ncn4nc(-c5ccc(F)cc5)cc4c3=O)n2)cc(OC)c1OC,1020
18,Cc1ccc(C)c(-c2csc(NC(=O)CCC(=O)O)n2)c1,781
19,CN(CC1CCOCC1)C(=O)c1cccs1,664
20,CC(C)CN1CCn2cc(C(=O)N3CCC(C)CC3)nc2C1,599
21,COCCCNC(=O)C1CCN(C(=O)c2cc3oc(C)cc3n2Cc2c(F)cccc2Cl)CC1,826
22,CCCN1CCN(CCCNC(=O)c2c(N3CCCC3=O)c3cc(F)ccc3n2CC)CC1,602

row,SMILES,RP-LC retention time [s]
1,COc1ccc(Cl)c2c(=O)c3c([nH]c12)CCN(CC(=O)Nc1cc(C)ccc1C)C3,649
2,COc1ccc(CSc2nccc3c2ccn3CC(=O)N2CCN(c3ccccc3)CC2)cc1,786
3,N#Cc1cc2c(OCC(O)CN3CCN(C(c4ccccc4)c4ccccc4)CC3)cccc2[nH]1 (stereo not drawn),819
4,COc1ccc(NC(=O)N(C)CCc2noc(COc3ccc(Cl)cc3)n2)cc1,1010
5,Cc1ccc(C)c(CNC(=O)C2CCN(c3cncnc3N3CCOCC3)CC2)c1,654
6,CCCc1c(C(=O)O)nnn1-c1ccccc1F,705
7,O=C(NCCc1ccccc1)N1[C@H]2CC[C@@H]1c1cncnc1C2,642
8,Cc1cc(C)n(Cc2nc(-c3ccc(NC(=O)c4ccc(C)s4)cc3)oc2C)n1,955
9,Cc1ccc(CC(=O)Nc2ccc(-c3nc(Cn4cc(C)cn4)c(C)o3)cc2)cc1,962
10,O=C(NCCCN1CCOCC1)c1c2c(nc3ccccc13)C(=O)N(C1CCCCC1)C2,598
11,O=S(=O)(NC1CCCCC1)c1ccc(-c2nnc(C3CCCC3)o2)o1,1020
12,CC1(C)CC(=O)c2cn(-c3ccccc3)c(=O)c(C(=O)Nc3ccccc3)c2C1,803
13,CC(C)(C)c1ccc(C(CNC(=O)c2cc(-c3ccc4c(c3)OCCO4)on2)N2CCCC2)cc1 (stereo not drawn),844
14,O=C(Cn1ccc2ccc(N3CCCCC3)nc21)NCc1ccc(F)cc1Cl,991
15,CCOC(=O)CNC(=O)C1(C)Cn2c(ccc2-c2ccco2)C(=O)N1Cc1ccccc1Cl (stereo not drawn),876
16,O=C1NCCCCCCN(Cc2ccncc2)[C@@H]2CN(C3CCC3)CC[C@H]12,559
17,Cc1nnc(N2CCCC(C(=O)NCCC3=CCCCC3)C2)c2nn(-c3ccc(Cl)cc3)c(C)c12 (stereo not drawn),861
18,CSc1ccc(-c2nc3c(C)cccn3c2Nc2ccccc2C)cc1,810
19,Cc1nn2c(S(=O)(=O)N3CCOCC3)c(C)nc2s1,656
20,Cn1ccc2cc(S(=O)(=O)N3CCCC(C(=O)NCCN4CCCCCC4)C3)ccc21 (stereo not drawn),668
21,CCCN1CCN(S(=O)(=O)c2cc(-c3nnc(C(C)C)o3)co2)CC1,618

# Now from value to compound:
row,RP-LC retention time [s],SMILES
1,833,COc1ccc(NC(=O)Cn2c(=O)n(-c3ccc(C)cc3)c3ncccc32)c(C)c1
2,883,CCCn1cc(S(=O)(=O)Nc2cccc(F)c2)c2cccnc21
3,938,CN(C(=O)Cn1cnc2c(-c3ccccc3)csc2c1=O)c1ccc(F)cc1
4,745,CN1C(=O)c2cccnc2Sc2cc(NC(=O)c3cccs3)ccc21
5,765,CCOc1ccc(Br)cc1S(=O)(=O)N1CCN(c2nc(C)cc(N(C)C)n2)CC1
6,573,COc1cccc(CN2CCn3c(nnc3[C@@H]3C[C@@H](O)CN3Cc3cccnc3)C2)c1OC
7,527,O=C(Cn1cnc2ccccc21)NCCOc1cccc2cccnc12
8,851,CC(C)n1c(=O)oc2cc(-c3noc(CNC(=O)c4ccccc4)n3)ccc21
9,748,O=C(Nc1cnc(N2CCCC2)nc1)c1ccc(F)c(F)c1
10,1030,CC1CCN(C(=O)C2=NN(Cc3ccccc3F)c3ccccc3S2(=O)=O)CC1
11,902,COC(=O)c1ccccc1NC(=O)N1CCC(C(=O)NCc2csc(-c3ccccc3)n2)CC1
12,791,CCc1onc(C)c1C1CCCN1C(=O)Nc1cccc(OC)c1 (stereo not drawn)
13,1070,COc1ccc(Cl)cc1C(=O)Nc1cnc(N2CCCCC2)nc1
14,898,Cc1cc(C)cc(Nc2ncccc2S(N)(=O)=O)c1
15,968,O=C(c1cn(-c2ccc(-c3nc(C4CC4)no3)cn2)cn1)N1CCc2ccccc2C1
16,740,CCCc1noc(-c2cccnc2N2CCCN(Cc3ccccc3C)CC2)n1
17,760,O=C(NCc1cccc(C(F)(F)F)c1)c1c[nH]c2ncccc12
18,964,CCc1nc(OCC(=O)Nc2cc(Cl)ccc2Cl)c2ccccc2n1
19,542,O=C1C(N2CCN(S(=O)(=O)c3ccc(F)cc3F)CC2)CCN1Cc1cccnc1 (stereo not drawn)
20,798,Cc1ccccc1NC(=O)Cn1nc2nc(N3CCCC(C)C3)ccn2c1=O (stereo not drawn)
21,622,Cc1cc(=O)n(CC(=O)Nc2ccccc2)c(N2CCCC2)n1
22,971,COc1ccc(N2CC(c3noc(-c4ccc(Cl)cc4OC)n3)CC2=O)cc1 (stereo not drawn)
23,778,CC(C)NC(=O)NCc1ccc2c(c1)N(C(=O)c1ccccc1)C(C)C2 (stereo not drawn)

row,RP-LC retention time [s],SMILES
1,744,O=S(=O)(c1ccc(Cl)cc1)N1CCC2(CC1)NCCN=C2NCc1ccc(F)cc1
2,1080,O=C(NCc1ccccc1)c1cc2sccc2n1Cc1ccc(F)cc1
3,919,O=C(Cn1cnc2c(sc3nc(-c4ccccc4)ccc32)c1=O)NCc1cccs1
4,724,COc1ccc(N2CC(c3nc(-c4ccccn4)no3)CC2=O)cc1Cl (stereo not drawn)
5,984,CCc1nc(-c2csc(S(=O)(=O)N3CCC(C(=O)Nc4cccc(Cl)c4C)CC3)c2)no1
6,1060,CC(=O)c1ccc(NC(=O)c2cnn3c4c(cnc23)CCCCCC4)cc1
7,575,CCCOc1ccc(CN2C[C@@H](CO)[C@H](c3ccncc3)C2)cc1
8,827,Cc1cc(S(=O)(=O)N2CCC(n3c(-c4ccoc4)nc4cccnc43)C2)ccc1F (stereo not drawn)
9,923,COc1ccccc1-c1nc(-c2ccc3nnn(C)c3c2)no1
10,616,O=C(c1ccc(CS(=O)(=O)c2ccc(Br)cc2)o1)N1CCN(c2ccccn2)CC1
11,954,COc1ccc(C2CCN(C(=O)Nc3cccc(C(F)(F)F)c3)C2)cc1 (stereo not drawn)
12,688,Cc1cc(C)cc(C(=O)NC(C)C(=O)Nc2nc3ccccc3[nH]2)c1 (stereo not drawn)
13,759,CCCC(=O)Nc1ccc2c(c1)CN(C(=O)c1cccc(Cl)c1)C(C(=O)N(C)C)C2 (stereo not drawn)
14,596,CC(C)N1C(=O)c2cccnc2Sc2cc(C(=O)N3CCCN(C)CC3)ccc21
15,724,CCS(=O)(=O)N1N=C(c2cccs2)CC1c1ccc2nccnc2c1 (stereo not drawn)
16,1240,CCOc1cc(-c2nc(C3CC(=O)N(c4ccc(Cl)cc4)C3)no2)cc(OCC)c1OCC (stereo not drawn)
17,1400,CCOc1nc2ccccc2nc1N1CCCC(C(=O)Nc2cc(C)c(Cl)cc2OC)C1 (stereo not drawn)
18,703,O=C(CNC(=O)Cc1ccc(Cl)cc1)NCc1[nH]nc2ccccc12
19,686,O=S(=O)(NCCc1ccsc1)c1cccnc1
20,950,Cc1nn(-c2ccc(Cl)cc2)c(C)c1S(=O)(=O)N1CCC(C(=O)NCc2cccs2)CC1
21,1030,COc1ccccc1N1CCN(c2cc(SCC(=O)Nc3cccc(Cl)c3)ncn2)CC1
22,1050,Cc1ccc(Nc2nc(-c3ccc(Cl)cc3)cs2)nc1
